# Results as given in PMC8998355, “Diversity-Oriented Synthesis Catalyzed by Diethylaminosulfur-Trifluoride—Preparation of New Antitumor Ecdysteroid Derivatives” (International Journal of Molecular Sciences, 2022).
# Key:
# [1] = biological target: T1, ABCB1 (Homo sapiens, UniProt P08183); experiment: ABCB1 inhibition assay (rhodamine 123 accumulation, flow cytometry); type: cell-based; conditions: human, probe rhodamine 123 (5.2 µM); for inhibition at 20 min, 2 µM / inhibition at 20 min, 20 µM: n = 1
# T1 construct: expressed in transfected cells; host or cells: L5178Y mouse T-cell lymphoma cells transfected with pHa MDR1/A retrovirus, selected with colchicine (L5178YMDR)
# Method: ABCB1 inhibition was determined by the intracellular accumulation of rhodamin 123 as reported before. Briefly, 2 × 10^6 cells/mL of L5178Y and L5178YMDR cell lines were re-suspended in serum-free McCoy’s 5A medium and distributed in 0.5 mL aliquots into Eppendorf centrifuge tubes. The compounds were added at a final concentration of 2 or 20 μM and the samples were incubated for 10 min at room temperature. Tariquidar was used as positive control and DMSO as negative control; for the latter, no activity was observed. Subsequently, 10 μL (5.2 μM final concentration) of the ABCB1 substrate fluorescent dye rhodamine 123 was added and the cells were incubated further for 20 min at 37 °C, washed twice and re-suspended in 1 mL PBS for analysis. Fluorescence of the cell population was measured with a PartecCyFlow® flow cytometer (Partec, Münster, Germany). Mean fluorescence intensity percentage was calculated for the treated vs. untreated L5178YMDR cells. Inhibition percentage for the treated cells was calculated from the corresponding values of the untreated L5178Y and L5178YMDR cells, representing 100% and 0% inhibition, respectively.
# [2] = tested on: L5178Y mouse T-cell lymphoma cells; experiment: MTT cytotoxicity assay (24 h, 1 × 10^4 cells); type: cell-based; conditions: 24 h MTT, n = 3, read-out: Cytotoxicity (IC50 ± SD)
# Method: (§1) To assess the compounds’ effect on cell growth and viability, we used two different experimental setups of MTT assay. This allowed a comparative evaluation of results obtained from a short-term (24 h) treatment of a relatively higher number (10,000) of cells and those from a long-term (72 h) treatment of a lower cell number (6000), which makes it possible to gain some insight into the cytotoxic vs. cytostatic properties of the compounds. Even though MTT assay is an endpoint detection method, i.e., it provides a single readout of viable cells at the end of the experiment, such a comparison offers a reliable tool to identify antiproliferative activity of compounds that are not cytotoxic.
# (§2) L5178Y mouse T-cell lymphoma cells (ECACC Cat. No. 87111908) were obtained from FDA, Silver Spring, MD, USA. These were transfected with pHa MDR1/A retrovirus as described previously. ABCB1-expressing L5178YMDR cells were selected by culturing the infected cells with colchicine. The cell lines were cultured in McCoy’s 5A medium supplemented with 10% heat inactivated horse serum, 2 mM L-glutamine, and penicillin–streptomycin mixture.
# (§3) MTT assay was performed in 96-well flat-bottomed microtiter plates as described before. Briefly, a 10 mM concentration stock solution in DMSO was prepared for each compound. These were diluted in 100 μL of McCoy’s 5A medium. Subsequently, 1 × 10^4 (cytotoxicity assay) or 6 × 10^3 (antiproliferative assay) T-cell mouse lymphoma cells in 100 μL of medium were added to each well, except for the medium control wells.
# (§4) The culture plates were further incubated at 37 °C for 24 h (cytotoxicity assay) or 72 h (antiproliferative assay); at the end of the incubation period, 20 μL of MTT solution (from a 5 mg/mL stock) was added to each well. After incubation at 37 °C for 4 h, 100 μL of SDS solution (10% in 0.01 M HCI) was added to each well and the plates were further incubated at 37 °C overnight. The cell growth was determined by measuring the optical density at 540 nm (ref. 630 nm) with a Multiscan EX ELISA reader (Thermo Labsystems, Cheshire, WA, USA). IC50 values were calculated by variable slope nonlinear regression using the log(inhibitor) vs. normalized response of GraphPad Prism 5.01 (GraphPad Software Inc., San Diego, CA, USA).
# [3] = tested on: L5178YMDR cells (ABCB1-expressing); experiment: MTT cytotoxicity assay (24 h, 1 × 10^4 cells); type: cell-based; conditions: Mus musculus, 24 h MTT, n = 3, read-out: Cytotoxicity (IC50 ± SD)
# Method: as §1, §2, §3, §4
# [4] = tested on: L5178Y mouse T-cell lymphoma cells; experiment: MTT antiproliferative assay (72 h, 6 × 10^3 cells); type: cell-based; conditions: Mus musculus; L5178Y, 72 h MTT, n = 3; read-out: Antiproliferative Effect (IC50 ± SD)
# Method: as §1, §2, §3, §4
# [5] = tested on: L5178YMDR cells (ABCB1-expressing); experiment: MTT antiproliferative assay (72 h, 6 × 10^3 cells); type: cell-based; conditions: Mus musculus, 72 h MTT, n = 3, read-out: Antiproliferative Effect (IC50 ± SD)
# Method: as §1, §2, §3, §4
# [6] = MTT cytotoxicity assay (24 h); type: cell-based; conditions: human, MRC-5 human embryonal lung fibroblasts; MRC-5, 24 h MTT, n = 3; read-out: Cytotoxicity (IC50 ± SD)
# Method: as §1
# (§5) MRC-5 human embryonal lung fibroblasts (CCL-171, ATCC) were acquired from Sigma-Aldrich (Merck, KGaA, Darmstadt, Germany), and were cultured in EMEM medium containing 4.5 g/L glucose and supplemented with a non-essential amino acid mixture, a selection of vitamins, and 10% of FBS.
# (§6) The adherent human fibroblast cells were seeded in 100 μL of EMEM medium overnight before each assay. Two-fold serial dilutions of the compounds (0.19–100 µM) were prepared in separate plates, then transferred to the plates containing the adherent cell lines.
# as §4
# [7] = tested on: MRC-5 human embryonal lung fibroblasts; experiment: MTT antiproliferative assay (72 h); type: cell-based; conditions: Homo sapiens, MRC5; MRC-5, 72 h MTT, n = 3; read-out: Antiproliferative Effect (IC50 ± SD)
# Method: as §1, §5, §6, §4
# [8] = tested on: L5178YMDR cells; experiment: Combination assay with doxorubicin (checkerboard microplate method, MTT); type: cell-based, mouse; set-up: Dm (antilog of the x-intercept of the median-effect plot): unit not given here; conditions: for CIavg (weighted average CI): (CI50 + 2CI75 + 3CI90)/6
# Method: Compounds 7, 10, 11, 13, and 14 had sufficient individual antiproliferative properties for their assessment of chemo-sensitizing activity. This was carried out as an antiproliferative assay on L5178YMDR cells in combination with doxorubicin, arranged according to the checkerboard microplate method.
# The checkerboard microplate method was used to evaluate the compounds’ interaction with doxorubicin, as described before. Briefly, doxorubicin (2 mg/mL, Teva Pharmaceuticals, Budapest, Hungary) was serially diluted in the horizontal direction (100 µL per well), and the ecdysteroid was subsequently diluted in the vertical direction (50 µL per well). L5178YMDR cells were re-suspended in culture medium and added to each test well in 50 µL to contain 1 × 10^4 cells per well, and 50 µL of medium was added to the medium control wells. The plates were incubated for 72 h at 37 °C in a CO2 incubator and, at the end of the incubation period, the cell growth was determined by MTT assay as described above. Cell viability data were analyzed by the Calcusyn software using the Chou method, and drug interactions were expressed as combination index (CI) values, in which 0 < CI < 1, CI = 1, and CI > 1 refer to synergism, additivity, and antagonism, respectively.
# [9] = L5178YMDR, rhodamine 123 accumulation
# [10] = drug ratio 11.6:1, with doxorubicin
# [11] = drug ratio 23.1:1, with doxorubicin
# [12] = drug ratio 46.4:1, with doxorubicin
SMILES,"inhibition at 20 min, 2 µM [1, 9] [%]","inhibition at 20 min, 20 µM [1, 9] [%]",IC50 [2] [µM],IC50 [3] [µM],IC50 [4] [µM],IC50 [5] [µM],IC50 at 24 h [6] [µM],IC50 [7] [µM],also measured
"CC(=O)[C@H]1CC[C@@]2(O)C3=CC(=O)[C@@H]4C[C@H]5OC(C)(C)O[C@H]5C[C@]4(C)[C@H]3CC[C@]12C [Compound 9, poststerone 2,3-acetonide]",-0.4,-0.42,> 100,> 100,49.2 ± 3.4,85.2 ± 5.1,> 100,> 100,–
CC(=O)O[C@H]1C[C@]2(C)C3=CC[C@@]4(C)C(=CC[C@@H]4[C@@]4(C)OC(C)(C)O[C@@H]4CCC(C)(C)O)C3=C(O)C(=O)[C@@]23C[C@@H]13 [Compound 17],1.08,45.5,27.2 ± 1,35.9 ± 0.6,20.3 ± 1,14.3 ± 0.5,–,5.9 ± 1.2,"inhibition at 20 min ([1]; concentration not given, read-out: direct ABCB1 inhibition): ~50%"
CC(=O)[C@H]1CC[C@@]2(F)C3=CC(=O)[C@@H]4C[C@H]5OC(C)(C)O[C@H]5C[C@]4(C)C3=CC[C@]12C [Compound 7],-0.24,0.29,38.6 ± 1.6,57.5 ± 6.3,15.2 ± 1.9,20 ± 2.4,> 100,> 100,"CI at ED75 [8, 10]: 0.76; CI at ED90 [8, 10]: 0.59; Dm (antilog of the x-intercept of the median-effect plot) [8, 10]: 4.05; CIavg (weighted average CI) [8, 10]: 0.71; CI at ED75 [8, 11]: 1.26; CI at ED90 [8, 11]: 1.37; Dm (antilog of the x-intercept of the median-effect plot) [8, 11]: 7.83; CIavg (weighted average CI) [8, 11]: 1.30; CI at ED75 [8, 12]: 0.84; CI at ED90 [8, 12]: 0.60; Dm (antilog of the x-intercept of the median-effect plot) [8, 12]: 11.56; CIavg (weighted average CI) [8, 12]: 0.78"
CC(=O)[C@H]1CC=C2C3=CC(=O)[C@@H]4C[C@H]5OC(C)(C)O[C@H]5C[C@]4(C)C3=CC[C@@]21C [Compound 6],-0.38,0.13,91.1 ± 6.8,> 100,31.2 ± 3.9,54.1 ± 2.3,> 100,> 100,–
CC(=O)[C@H]1CC[C@@]2(O)C3=CC(=O)[C@@H]4C[C@H]5OC(C)(C)O[C@H]5C[C@]4(C)[C@H]3[C@H](O)C[C@]12C [Compound 3],-0.03,-0.35,> 100,> 100,75.5 ± 4.1,> 100,> 100,21.4 ± 0.2,–
"COc1cccc2c1C(=O)c1c(O)c3c(c(O)c1C2=O)C[C@@](O)(C(=O)CO)C[C@@H]3O[C@H]1C[C@H](N)[C@H](O)[C@H](C)O1 [Doxorubicin, reference compound]",–,–,0.3 ± 0.1,8.1 ± 2.8,0.014 ± 0.002,0.71 ± 0.2,1.7 ± 0.5,–,–
"CC(=O)O[C@H]1C[C@@]2(C)C(=C(O)C(=O)C3=C2CC[C@@]2(C)C3=CC[C@@H]2[C@@]2(C)OC(C)(C)O[C@@H]2CCC(C)(C)O)C[C@H]1O [Compound 16, calonysterone 2-acetate 20,22-acetonide]",0.71,15.7,63 ± 4.4,78.7 ± 6.7,50.3 ± 0.2,40 ± 3.4,> 100,67.2 ± 14.6,–
"COc1cc2c(cc1OC)CN(CCc1ccc(NC(=O)c3cc(OC)c(OC)cc3NC(=O)c3cnc4ccccc4c3)cc1)CC2 [tariquidar, reference compound]",–,–,–,–,–,–,–,–,"inhibition at 20 min, 0.02 µM ([1]; 20 nM, L5178YMDR, rhodamine 123 accumulation, read-out: ABCB1 inhibition, positive control): 87.5%"
CC(=O)[C@H]1CC[C@@]2(O)C3=CC(=O)[C@@H]4C[C@H]5OC(C)(C)O[C@H]5C[C@]4(C)C3=CC[C@]12C [Compound 5],0.2,-0.41,> 100,> 100,56.5 ± 6,80.2 ± 2.1,> 100,20.9 ± 3.6,–
